From PubChem BioAssay (NCI)
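96-well plates; 48 h exposure; 5 concentrations. Endpoints by linear interpolation between flanking doses. Not reached: highest tested concentration assigned. Here, GI50 denotes the concentration required for 50% inhibition of growth. The concentration for full growth arrest is given as TGI.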

How the values were obtained:
Assay in all cases: inhibition of tumour cell growth, NCI panel, 48 h
[1] = test system: HCT-116 colon
[2] = test system: ACHN renal
[3] = test system: SNB-19 CNS
[4] = test system: HCT-15 colon
[5] = test system: SF-295 CNS
[6] = test system: COLO 205 colon
[7] = test system: K-562 leukemia
[8] = test system: HT29 colon
[9] = test system: NCI-H522 lung
[10] = test system: RXF 393 renal

Compound | TGI [1] | TGI [2] | TGI [3] | TGI [4] | TGI [5] | TGI [6] | TGI [7] | TGI [8] | TGI [9] | TGI [10] | GI50 [1] | GI50 [2] | GI50 [3] | GI50 [4] | GI50 [10] | GI50 [5] | GI50 [6] | GI50 [7] | GI50 [8] | GI50 [9]
O=C(Cl)c1cc([N+](=O)[O-])cc([N+](=O)[O-])c1 | > 100 µM | > 100 µM | > 100 µM | > 100 µM | > 100 µM | > 100 µM | > 100 µM | > 100 µM | > 100 µM |  |  |  |  |  |  |  |  |  |  | 
CN(C)CCCN1c2ccc3ccccc3c2Sc2cccc(Cl)c21 | 14 µM | 12.6 µM | 22.7 µM | 22.7 µM | 12.4 µM | 3.51 µM | 3.77 µM | 4.56 µM | 10.5 µM | 10.4 µM |  |  |  |  |  |  |  |  |  | 
CC(C)OP(=O)(OC(C)C)c1ncn(-c2ccc([N+](=O)[O-])cc2)n1 | > 100 µM | > 100 µM | > 100 µM | > 100 µM | > 100 µM | > 100 µM | > 100 µM | > 100 µM | > 100 µM | > 100 µM |  |  |  |  |  |  |  |  |  | 
COc1nc(NC2OCC(OC(C)=O)C(OC(C)=O)C2OC(C)=O)c(N=C(C)C(C)=O)c(=O)n1C (configuration not stated) | > 100 µM | > 100 µM | > 100 µM | > 100 µM | > 100 µM | > 100 µM | > 100 µM | > 100 µM |  | > 100 µM |  |  |  |  |  |  |  |  |  | 
Nc1cc(N)c2nc(-c3ccccc3)c(Sc3ccc(F)cc3)nc2c1 | 28.3 µM | 27.7 µM | 41.7 µM | 27.4 µM | 29.9 µM | 47.9 µM | > 100 µM | 45.9 µM | > 100 µM | 29.3 µM | 14.7 µM | 14.2 µM | 20 µM | 13.4 µM | 13.3 µM | 13.9 µM | 22.1 µM | 39.6 µM | 17.8 µM | > 100 µM
COc1cccc(C(=O)C(O)c2cccc(OC)c2OC)c1OC (configuration not stated) | > 100 µM | > 100 µM | > 100 µM | > 100 µM | > 100 µM | > 100 µM |  | > 100 µM | > 100 µM | > 100 µM |  |  |  |  |  |  |  |  |  | 
O=C(CCc1nnc2s/c(=C\c3ccc(Cl)cc3Cl)c(=O)n12)Nc1cc(Cl)c(Cl)cc1Cl | > 100 µM | > 100 µM |  | > 100 µM | > 100 µM | > 100 µM | > 100 µM | > 100 µM | > 100 µM |  | > 100 µM | > 100 µM |  | > 100 µM |  | > 100 µM | > 100 µM | > 100 µM | > 100 µM | 
CN1C(=N\S(=O)(=O)c2ccc(Cl)cc2)/C(=N/N=P(c2ccccc2)(c2ccccc2)c2ccccc2)c2ccccc21 | > 100 µM | > 100 µM | > 100 µM | > 100 µM | > 100 µM | > 100 µM | > 100 µM | > 100 µM | > 100 µM | > 100 µM |  |  |  |  |  |  |  |  |  | 
